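Where inhibition never reached the appropriate level, the endpoint shown equals the highest concentration tested. Otherwise, values were interpolated linearly from a five-concentration, 48-hour dose response in 96-well plates. GI50 = concentration required for 50% inhibition of growth. At the TGI there is no net growth.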
Legend:
Experiment in all cases: DTP human tumour cell line panel, 48 h; in the data active means GI50 below about 0.43 µM; inactive means the rest
786-0 renal = system: 786-0 renal
A549 NSCLC = system: A549 NSCLC
ACHN renal = system: ACHN renal
BT-549 breast = system: BT-549 breast
CAKI-1 renal = system: CAKI-1 renal
CCRF-CEM leukemia = system: CCRF-CEM leukemia
COLO 205 colon = system: COLO 205 colon
DU-145 prostate = system: DU-145 prostate
EKVX NSCLC = system: EKVX NSCLC
HCC-2998 colon = system: HCC-2998 colon
HCT-116 colon = system: HCT-116 colon
HCT-15 colon = system: HCT-15 colon
HL-60(TB) leukemia = system: HL-60(TB) leukemia
HOP-92 NSCLC = system: HOP-92 NSCLC
HS 578T breast = system: HS 578T breast
IGROV1 ovarian = system: IGROV1 ovarian
K-562 leukemia = system: K-562 leukemia
KM12 colon = system: KM12 colon
LOX IMVI melanoma = system: LOX IMVI melanoma
M14 melanoma = system: M14 melanoma
MALME-3M melanoma = system: MALME-3M melanoma
MCF7 breast = system: MCF7 breast
MDA-MB-231 breast = system: MDA-MB-231 breast
MDA-MB-435 = system: MDA-MB-435
MDA-N = system: MDA-N
MOLT-4 leukemia = system: MOLT-4 leukemia
NCI-H226 lung = system: NCI-H226 lung
NCI-H460 lung = system: NCI-H460 lung
NCI-H522 lung = system: NCI-H522 lung
NCI/ADR-RES ovarian = system: NCI/ADR-RES ovarian
OVCAR-3 ovarian = system: OVCAR-3 ovarian
OVCAR-4 ovarian = system: OVCAR-4 ovarian
OVCAR-5 ovarian = system: OVCAR-5 ovarian
OVCAR-8 ovarian = system: OVCAR-8 ovarian
PC-3 prostate = system: PC-3 prostate
RPMI-8226 leukemia = system: RPMI-8226 leukemia
RXF 393 renal = system: RXF 393 renal
SF-268 CNS = system: SF-268 CNS
SF-295 CNS = system: SF-295 CNS
SF-539 CNS = system: SF-539 CNS
SK-MEL-2 melanoma = system: SK-MEL-2 melanoma
SK-MEL-28 melanoma = system: SK-MEL-28 melanoma
SK-MEL-5 melanoma = system: SK-MEL-5 melanoma
SN12C renal = system: SN12C renal
SNB-19 CNS = system: SNB-19 CNS
SNB-75 CNS = system: SNB-75 CNS
SR leukemia = system: SR leukemia
SW-620 colon = system: SW-620 colon
T-47D breast = system: T-47D breast
TK-10 renal = system: TK-10 renal
U251 CNS = system: U251 CNS
UACC-257 melanoma = system: UACC-257 melanoma
UACC-62 melanoma = system: UACC-62 melanoma
UO-31 renal = system: UO-31 renal
HOP-62 NSCLC = system: HOP-62 NSCLC
HT29 colon = system: HT29 colon
NCI-H23 lung = system: NCI-H23 lung
SK-OV-3 ovarian = system: SK-OV-3 ovarian

CCOC(=O)c1nc2cc(C(F)(F)F)ccc2nc1Oc1ccc(OC)cc1
> 100 µM: TGI (786-0 renal) | TGI (A549 NSCLC) | TGI (ACHN renal) | TGI (BT-549 breast) | TGI (CAKI-1 renal) | TGI (CCRF-CEM leukemia) | TGI (COLO 205 colon) | TGI (DU-145 prostate) | TGI (EKVX NSCLC) | TGI (HCC-2998 colon) | TGI (HCT-116 colon) | TGI (HCT-15 colon) | TGI (HL-60(TB) leukemia) | TGI (HOP-92 NSCLC) | TGI (HS 578T breast) | TGI (IGROV1 ovarian) | TGI (K-562 leukemia) | TGI (KM12 colon) | TGI (LOX IMVI melanoma) | TGI (M14 melanoma) | TGI (MALME-3M melanoma) | TGI (MCF7 breast) | TGI (MDA-MB-231 breast) | TGI (MDA-MB-435) | TGI (MDA-N) | TGI (MOLT-4 leukemia) | TGI (NCI-H226 lung) | TGI (NCI-H460 lung) | TGI (NCI-H522 lung) | TGI (NCI/ADR-RES ovarian) | TGI (OVCAR-3 ovarian) | TGI (OVCAR-4 ovarian) | TGI (OVCAR-5 ovarian) | TGI (OVCAR-8 ovarian) | TGI (PC-3 prostate) | TGI (RPMI-8226 leukemia) | TGI (RXF 393 renal) | TGI (SF-268 CNS) | TGI (SF-295 CNS) | TGI (SF-539 CNS) | TGI (SK-MEL-2 melanoma) | TGI (SK-MEL-28 melanoma) | TGI (SK-MEL-5 melanoma) | TGI (SN12C renal) | TGI (SNB-19 CNS) | TGI (SNB-75 CNS) | TGI (SR leukemia) | TGI (SW-620 colon) | TGI (T-47D breast) | TGI (TK-10 renal) | TGI (U251 CNS) | TGI (UACC-257 melanoma) | TGI (UACC-62 melanoma) | TGI (UO-31 renal)

COc1cccc(/C=C/c2ccc(S(N)(=O)=O)cc2)c1
35.8 µM: TGI (HOP-92 NSCLC)
60.9 µM: TGI (UACC-257 melanoma)
57.5 µM: TGI (NCI-H23 lung)
77.6 µM: TGI (SF-539 CNS)
> 100 µM: TGI (A549 NSCLC) | TGI (ACHN renal) | TGI (BT-549 breast) | TGI (CAKI-1 renal) | TGI (CCRF-CEM leukemia) | TGI (DU-145 prostate) | TGI (EKVX NSCLC) | TGI (HOP-62 NSCLC) | TGI (HT29 colon) | TGI (K-562 leukemia) | TGI (KM12 colon) | TGI (LOX IMVI melanoma) | TGI (M14 melanoma) | TGI (MALME-3M melanoma) | TGI (MCF7 breast) | TGI (MDA-MB-435) | TGI (MDA-N) | TGI (MOLT-4 leukemia) | TGI (NCI-H460 lung) | TGI (NCI/ADR-RES ovarian) | TGI (OVCAR-4 ovarian) | TGI (OVCAR-5 ovarian) | TGI (OVCAR-8 ovarian) | TGI (PC-3 prostate) | TGI (RXF 393 renal) | TGI (SF-268 CNS) | TGI (SF-295 CNS) | TGI (SK-MEL-28 melanoma) | TGI (SK-OV-3 ovarian) | TGI (SNB-19 CNS) | TGI (T-47D breast) | TGI (U251 CNS) | TGI (UO-31 renal)
91.2 µM: TGI (SNB-75 CNS)
80.1 µM: TGI (HS 578T breast)
inactive: GI50 (A549 NSCLC) 11 µM | GI50 (ACHN renal) 7.12 µM | GI50 (BT-549 breast) 6.38 µM | GI50 (CAKI-1 renal) 14.7 µM | GI50 (CCRF-CEM leukemia) 13.6 µM | GI50 (HCT-15 colon) 3.6 µM | GI50 (HL-60(TB) leukemia) 10.4 µM | GI50 (HOP-92 NSCLC) 3.29 µM | GI50 (HS 578T breast) 25.5 µM | GI50 (HT29 colon) 0.554 µM | GI50 (IGROV1 ovarian) 2.5 µM | GI50 (K-562 leukemia) 20.6 µM | GI50 (KM12 colon) 12.2 µM | GI50 (LOX IMVI melanoma) 30.7 µM | GI50 (MDA-MB-435) 17.4 µM | GI50 (MOLT-4 leukemia) 26.8 µM | GI50 (NCI-H226 lung) 2.91 µM | GI50 (NCI-H23 lung) 21 µM | GI50 (OVCAR-4 ovarian) 25 µM | GI50 (OVCAR-8 ovarian) 31.6 µM | GI50 (RPMI-8226 leukemia) 3.81 µM | GI50 (SF-268 CNS) 17.1 µM | GI50 (SF-539 CNS) 16.8 µM | GI50 (SR leukemia) 5.21 µM | GI50 (U251 CNS) 5.54 µM | GI50 (UACC-62 melanoma) 14 µM
28.9 µM: TGI (IGROV1 ovarian)
21.7 µM: TGI (HCT-116 colon)
87.2 µM: TGI (HCC-2998 colon)
79.6 µM: TGI (MDA-MB-231 breast)
19.8 µM: TGI (RPMI-8226 leukemia)
40.8 µM: TGI (SR leukemia)
98.2 µM: TGI (786-0 renal)
89.6 µM: TGI (SN12C renal)
66.8 µM: TGI (SK-MEL-5 melanoma)
58.9 µM: TGI (UACC-62 melanoma)
90 µM: TGI (TK-10 renal)
17.5 µM: TGI (NCI-H226 lung)
27.5 µM: TGI (OVCAR-3 ovarian)
42.8 µM: TGI (COLO 205 colon)
65.4 µM: TGI (HCT-15 colon)
77.7 µM: TGI (HL-60(TB) leukemia)
36.8 µM: TGI (SK-MEL-2 melanoma)
